Measurements as given in ChEMBL document CHEMBL1201862, “PubChem BioAssay data set” (2004).
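Protocol summary: plate cells (96-well), add compound at 5 concentrations, incubate 48 h, interpolate endpoints linearly. GI50 = concentration required for 50% inhibition of growth.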 Activity calls are given as the source filed them. No stated cut-off is given here; in the data, active = GI50 up to about 1.1 µM and inactive = higher.

Legend:
Test in all cases: NCI anticancer screen, dose series, 48 h
RPMI-8226 = system: RPMI-8226
CCRF-CEM = system: CCRF-CEM
LOX IMVI = system: LOX IMVI
SN12C = system: SN12C
SK-MEL-5 = system: SK-MEL-5
HOP-62 = system: HOP-62
KM12 = system: KM12
HOP-92 = system: HOP-92
HCT-15 = system: HCT-15
786-0 = system: 786-0
SK-OV-3 = system: SK-OV-3
HCC 2998 = system: HCC 2998
MDA-MB-435 = system: MDA-MB-435
NCI-H23 = system: NCI-H23
MDA-MB-231 = system: MDA-MB-231
PC-3 = system: PC-3
OVCAR-3 = system: OVCAR-3
NCI/ADR-RES = system: NCI/ADR-RES
SNB-75 = system: SNB-75
HL-60 = system: HL-60

SMILES	GI50 (RPMI-8226)	GI50 (CCRF-CEM)	GI50 (LOX IMVI)	GI50 (SN12C)	GI50 (SK-MEL-5)	GI50 (HOP-62)	GI50 (KM12)	GI50 (HOP-92)	GI50 (HCT-15)	GI50 (786-0)	GI50 (SK-OV-3)	GI50 (HCC 2998)	GI50 (MDA-MB-435)	GI50 (NCI-H23)	GI50 (MDA-MB-231)	GI50 (PC-3)	GI50 (OVCAR-3)	GI50 (NCI/ADR-RES)	GI50 (SNB-75)	GI50 (HL-60)
CCc1ccc(CCN2CCCCC2)nc1	96.8 µM (inactive)	> 100 µM (inactive)	> 100 µM (inactive)	> 100 µM (inactive)	> 100 µM (inactive)	> 100 µM (inactive)	> 100 µM (inactive)	46.3 µM (inactive)	> 100 µM	> 100 µM (inactive)	> 100 µM (inactive)	> 100 µM (inactive)	> 100 µM (inactive)	> 100 µM (inactive)	> 100 µM (inactive)	> 100 µM (inactive)	92.3 µM (inactive)	> 100 µM (inactive)	–	–
CN1CCc2[nH]nc(-c3n[nH]c4c3CN(C)CC4)c2C1	> 100 µM (inactive)	72.8 µM (inactive)	> 100 µM (inactive)	> 100 µM (inactive)	> 100 µM (inactive)	> 100 µM (inactive)	> 100 µM (inactive)	> 100 µM (inactive)	> 100 µM	> 100 µM (inactive)	> 100 µM (inactive)	> 100 µM (inactive)	> 100 µM (inactive)	> 100 µM (inactive)	> 100 µM (inactive)	> 100 µM (inactive)	> 100 µM (inactive)	> 100 µM (inactive)	–	–
CC(SC(=S)N(C)C)C(=O)Nc1nnc(-c2ccc(Cl)cc2)o1 (stereo not drawn)	22.6 µM (inactive)	–	16.9 µM (inactive)	33.7 µM (inactive)	31.6 µM (inactive)	51.2 µM (inactive)	–	> 100 µM (inactive)	17.7 µM	20.8 µM (inactive)	> 100 µM (inactive)	> 100 µM (inactive)	35.2 µM (inactive)	54.2 µM (inactive)	44.6 µM (inactive)	35.9 µM (inactive)	19.6 µM (inactive)	14.6 µM (inactive)	41.5 µM (inactive)	–
COc1ccc2c(c1)CCN1CCc3cc(OC)c(OC)cc3CC21 (stereo not drawn)	65.5 µM (inactive)	55 µM (inactive)	33 µM (inactive)	> 100 µM (inactive)	–	–	88.5 µM (inactive)	89.3 µM (inactive)	61 µM	> 100 µM (inactive)	> 100 µM (inactive)	38.3 µM (inactive)	66.1 µM (inactive)	98.9 µM (inactive)	> 100 µM (inactive)	–	–	> 100 µM (inactive)	66.7 µM (inactive)	–
CCOP(=O)(OCC)C(F)(F)c1ccc(CC(NC(=O)OC(C)(C)C)C(=O)O)cc1 (stereo not drawn)	–	> 10 µM (inactive)	> 10 µM (inactive)	> 10 µM (inactive)	> 10 µM (inactive)	5.15 µM (inactive)	> 10 µM (inactive)	> 10 µM (inactive)	> 10 µM	> 10 µM (inactive)	> 10 µM (inactive)	> 10 µM (inactive)	> 10 µM (inactive)	> 10 µM (inactive)	> 10 µM (inactive)	> 10 µM (inactive)	> 10 µM (inactive)	> 10 µM (inactive)	> 10 µM (inactive)	–
CC(C)(C)OC(=O)NCCCCC(N)NC(=O)c1ccccc1 (stereo not drawn)	> 100 µM (inactive)	> 100 µM (inactive)	> 100 µM (inactive)	> 100 µM (inactive)	> 100 µM (inactive)	> 100 µM (inactive)	> 100 µM (inactive)	> 100 µM (inactive)	> 100 µM	> 100 µM (inactive)	> 100 µM (inactive)	> 100 µM (inactive)	> 100 µM (inactive)	> 100 µM (inactive)	> 100 µM (inactive)	> 100 µM (inactive)	> 100 µM (inactive)	> 100 µM (inactive)	> 100 µM (inactive)	–
N#Cc1nc(-c2cccnc2)oc1N	> 100 µM (inactive)	> 100 µM (inactive)	> 100 µM (inactive)	> 100 µM (inactive)	> 100 µM (inactive)	> 100 µM (inactive)	> 100 µM (inactive)	> 100 µM (inactive)	> 100 µM	> 100 µM (inactive)	> 100 µM (inactive)	> 100 µM (inactive)	> 100 µM (inactive)	–	> 100 µM (inactive)	> 100 µM (inactive)	> 100 µM (inactive)	–	–	> 100 µM (inactive)
O=C(/C=C/c1ccc(-c2ccccc2[N+](=O)[O-])o1)NCc1ccc(C(=O)NCCc2ccccc2)cc1	> 100 µM (inactive)	–	> 100 µM (inactive)	> 100 µM (inactive)	> 100 µM (inactive)	> 100 µM (inactive)	> 100 µM (inactive)	> 100 µM (inactive)	> 100 µM	> 100 µM (inactive)	> 100 µM (inactive)	> 100 µM (inactive)	3.92 µM (inactive)	> 100 µM (inactive)	> 100 µM (inactive)	> 100 µM (inactive)	> 100 µM (inactive)	> 100 µM (inactive)	> 100 µM (inactive)	–
Cc1cc(C#N)c(Nc2ccccc2[N+](=O)[O-])s1	22.6 µM (inactive)	39.3 µM (inactive)	–	19.2 µM (inactive)	–	24.3 µM (inactive)	36.1 µM (inactive)	57.9 µM (inactive)	28.8 µM	49.9 µM (inactive)	26.4 µM (inactive)	40.8 µM (inactive)	18.8 µM (inactive)	26.1 µM (inactive)	24.7 µM (inactive)	23.8 µM (inactive)	21 µM (inactive)	17.4 µM (inactive)	15.4 µM (inactive)	–
COc1ccc(C(=O)/C=C/c2ccc(OCC#N)cc2)cc1OC	–	3.21 µM (inactive)	–	16.4 µM (inactive)	18.3 µM (inactive)	15.5 µM (inactive)	5.33 µM (inactive)	22.6 µM (inactive)	20 µM	19.9 µM (inactive)	26.5 µM (inactive)	18.2 µM (inactive)	17.5 µM (inactive)	21.9 µM (inactive)	13.8 µM (inactive)	> 10 µM (inactive)	21.2 µM (inactive)	18.5 µM (inactive)	3.72 µM (inactive)	–
COC(=O)C1=COC(OC2OC(CO)C(O)C(O)C2O)C2C3CN4CCc5c([nH]c6ccccc56)C4(CC12)O3 (stereo not drawn)	> 100 µM (inactive)	–	> 100 µM (inactive)	> 100 µM (inactive)	> 100 µM (inactive)	> 100 µM (inactive)	> 100 µM (inactive)	–	> 100 µM	> 100 µM (inactive)	> 100 µM (inactive)	–	–	> 100 µM (inactive)	> 100 µM (inactive)	> 100 µM (inactive)	> 100 µM (inactive)	> 100 µM (inactive)	> 100 µM (inactive)	> 100 µM (inactive)
COC(=O)C1=C2Nc3ccccc3C23CCN2C(O)C4(CC5CC67CCOC6CCN6CCC8(c9cccc(OC)c9N(C4)C58O)C67)C4OCCC4(C1)C23 (stereo not drawn)	> 100 µM (inactive)	> 100 µM (inactive)	95.5 µM (inactive)	79.8 µM (inactive)	49.5 µM (inactive)	44.2 µM (inactive)	78.9 µM (inactive)	27.2 µM (inactive)	> 100 µM	24.3 µM (inactive)	68.5 µM (inactive)	> 100 µM (inactive)	58.7 µM (inactive)	> 100 µM (inactive)	15.6 µM (inactive)	34.8 µM (inactive)	> 100 µM (inactive)	–	23.5 µM (inactive)	> 100 µM (inactive)
O=C1c2cc3c(cc2NC(c2ccccc2F)C1O)OCO3 (stereo not drawn)	30.5 µM (inactive)	14 µM (inactive)	17.9 µM (inactive)	22.2 µM (inactive)	4.86 µM (inactive)	22.7 µM (inactive)	6.65 µM (inactive)	33.6 µM (inactive)	5.45 µM	15.5 µM (inactive)	17.7 µM (inactive)	15.5 µM (inactive)	3.08 µM (inactive)	22.6 µM (inactive)	20.2 µM (inactive)	10.6 µM (inactive)	20.5 µM (inactive)	10.5 µM (inactive)	16.3 µM (inactive)	–
Nc1ccc(C2SCC(=O)N2NS(=O)(=O)c2cccc(C(=O)O)c2)cc1 (stereo not drawn)	10.4 µM (inactive)	63.8 µM (inactive)	> 100 µM (inactive)	> 100 µM (inactive)	> 100 µM (inactive)	> 100 µM (inactive)	> 100 µM (inactive)	> 100 µM (inactive)	> 100 µM	> 100 µM (inactive)	> 100 µM (inactive)	> 100 µM (inactive)	> 100 µM (inactive)	> 100 µM (inactive)	> 100 µM (inactive)	> 100 µM (inactive)	> 100 µM (inactive)	–	> 100 µM (inactive)	> 100 µM (inactive)
NS(=O)(=O)c1nnc(NC(=O)Nc2ccc(Cl)c(Cl)c2)s1	17.5 µM (inactive)	14.3 µM (inactive)	18.2 µM (inactive)	19.3 µM (inactive)	16.7 µM (inactive)	17.8 µM (inactive)	26.9 µM (inactive)	16.3 µM (inactive)	21.2 µM	24.3 µM (inactive)	20.6 µM (inactive)	18.7 µM (inactive)	20.3 µM (inactive)	18 µM (inactive)	25.9 µM (inactive)	–	24.9 µM (inactive)	21 µM (inactive)	–	28.8 µM (inactive)
O=c1cccc2n1CC1CNC[C@H]2C1 [CYTISINICLINE]	–	> 100 µM (inactive)	> 100 µM (inactive)	> 100 µM (inactive)	> 100 µM (inactive)	> 100 µM (inactive)	> 100 µM (inactive)	> 100 µM (inactive)	> 100 µM	> 100 µM (inactive)	> 100 µM (inactive)	> 100 µM (inactive)	> 100 µM (inactive)	> 100 µM (inactive)	> 100 µM (inactive)	> 100 µM (inactive)	> 100 µM (inactive)	> 100 µM (inactive)	> 100 µM (inactive)	–
